Results: US10807952B2 (Achillion Pharmaceuticals, Inc., priority 2015, dated 2020)

Biological target: Human Factor D (Homo sapiens (Human), UniProt P00746)
Test: Human Factor D assay (Z-L-Lys-SBzl / DTNB, absorbance at 405 nm)
Type: biochemical
Details: Table 4; Human Factor D 80 nM, assay of Example 13
In short: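 Human serum-purified Factor D (80 nM final) was preincubated with compound for 5 min at room temperature in 50 mM Tris, 1M NaCl, pH 7.5. IC50 came from nonlinear regression of rate versus compound concentration.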

Sequence of Human Factor D (P00746 26-253): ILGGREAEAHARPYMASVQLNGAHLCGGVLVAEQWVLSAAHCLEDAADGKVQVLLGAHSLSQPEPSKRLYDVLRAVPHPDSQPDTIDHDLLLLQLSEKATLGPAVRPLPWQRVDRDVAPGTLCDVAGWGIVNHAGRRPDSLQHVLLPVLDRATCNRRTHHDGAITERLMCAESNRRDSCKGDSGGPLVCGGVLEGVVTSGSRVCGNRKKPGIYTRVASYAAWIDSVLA

| SMILES | IC50 [nM] |
| --- | --- |
| CC(=O)c1nn(CC(=O)N2C[C@H](F)C[C@H]2C(=O)Nc2cccc(-c3ccc4sc(N)nc4c3)c2F)c2ccccc12 [Compound 100, (2S,4R)-1-(2-(3-acetyl-1H-indazol-1-yl)acetyl)-N-(3-(2-aminobenzo[d]thiazol-5-yl)-2-fluorophenyl)-4-fluoropyrrolidine-2-carboxamide] | < 1000 |
| CC(=O)c1nn(CC(=O)N2C[C@H](F)C[C@H]2C(=O)Nc2cccc(-c3ccc4nc(N)sc4c3)c2F)c2ccccc12 [Compound 101, (2S,4R)-1-(2-(3-acetyl-1H-indazol-1-yl)acetyl)-N-(3-(2-aminobenzo[d]thiazol-6-yl)-2-fluorophenyl)-4-fluoropyrrolidine-2-carboxamide] | < 1000 |
| CC(=O)c1nn(CC(=O)N2C[C@H](F)C[C@H]2C(=O)Nc2cccc(-c3ccc4[nH]c(=O)[nH]c(=O)c4c3)c2F)c2ccccc12 [Compound 102, (2S,4R)-1-(2-(3-acetyl-1H-indazol-1-yl)acetyl)-N-(3-(2,4-dioxo-1,2,3,4-tetrahydroquinazolin-6-yl)-2-fluorophenyl)-4-fluoropyrrolidine-2-carboxamide] | < 1000 |
| CC(=O)c1nn(CC(=O)N2C[C@H](F)C[C@H]2C(=O)Nc2cccc(-c3ccc4sc(O)nc4c3)c2F)c2ccccc12 [Compound 103, (2S,4R)-1-(2-(3-acetyl-1H-indazol-1-yl)acetyl)-4-fluoro-N-(2-fluoro-3-(2-hydroxybenzo[d]thiazol-5-yl)phenyl)pyrrolidine-2-carboxamide] | < 1000 |
| CC(=O)c1nn(CC(=O)N2C[C@H](F)C[C@H]2C(=O)Nc2cccc(/C=C/c3nc4c(Cl)cccc4[nH]3)c2F)c2ccccc12 [Compound 104, (2S,4R)-1-(2-(3-acetyl-1H-indazol-1-yl)acetyl)-N-(3-((E)-2-(4-chloro-1H-benzo[d]imidazol-2-yl)vinyl)-2-fluorophenyl)-4-fluoropyrrolidine-2-carboxamide] | < 1000 |
| Cc1cccc(NC(=O)[C@@H]2CCC(F)CCN2C(=O)Cn2cc(C(N)=O)c3cc(C4=CCCCC4)ccc32)n1 (stereo partly drawn) [Compound 106, 5-(cyclohex-1-en-1-yl)-1-(2-((2S)-5-fluoro-2-((6-methylpyridin-2-yl)carbamoyl)azepan-1-yl)-2-oxoethyl)-1H-indole-3-carboxamide] | > 10000 |
| Cc1c(Br)c(C(N)=O)nn1CC(=O)N1C[C@H](F)C[C@H]1C(=O)Nc1cccc(Br)n1 [Compound 107, 4-Bromo-1-(2-((2S,4R)-2-((6-bromopyridin-2-yl)carbamoyl)-4-fluoropyrrolidin-1-yl)-2-oxoethyl)-5-methyl-1H-pyrazole-3-carboxamide] | 1000 to 10000 |
